Laboratory results: patent US20260022142A1, “MACROCYCLIC IMMUNOMODULATORS” (Bristol-Myers Squibb Company, priority 2022, published 2026)
Numbered stars: 1 amine (or outer) side, 2 acyl side, 3 side chain; on linkers, the order of the positions; unused ones are H or OH. Bridge positions count the residues as written; N and C are the ends. Square brackets hold non-standard residues; d marks the D form. Peptide text beside a SMILES is read from it. * marks the point of attachment. ξ: configuration not given here. Phe(4-CH2CH2COOH) = N[C@@H](Cc1ccc(CCC(=O)O)cc1)C(=O)O; Phe(3-CF3) = N[C@@H](Cc1cccc(C(F)(F)F)c1)C(=O)O; Phe(4-COOH) = N[C@@H](Cc1ccc(C(=O)O)cc1)C(=O)O; Bip = N[C@@H](Cc1ccc(-c2ccccc2)cc1)C(=O)O; X18 = O=C(C(CC1CCC(F)(F)CC1)N[*:1])[*:2]; Phe(3-Me) = Cc1cccc(C[C@H](N)C(=O)O)c1; γGlu = O=C(O)[C@H](CCC(=O)[*:2])N[*:1]; NH(CH2)12COOH = O=C(O)CCCCCCCCCCCCN*; Val(3-OH) = CC(C)(O)[C@H](N)C(=O)O; hArg = N=C(N)NCCCC[C@H](N)C(=O)O; 4Pal = N[C@@H](Cc1ccncc1)C(=O)O; Cha = N[C@@H](CC1CCCCC1)C(=O)O; Cit = NC(=O)NCCC[C@H](N)C(=O)O; Thr(3ξ) = CC(O)[C@H](N)C(=O)O; Cba = N[C@@H](CC1CCC1)C(=O)O; dDab = NCC[C@@H](N)C(=O)O; Carboxymethyl = O=C(O)C*; Nle = CCCC[C@H](N)C(=O)O; Orn = NCCC[C@H](N)C(=O)O; Aun = NCCCCCCCCCCC(=O)O; Dab = NCC[C@H](N)C(=O)O; AEEA = NCCOCCOCC(=O)O; Ac3c = NC1(C(=O)O)CC1

The compounds below were run against T1, PD-1/PD-L1 interaction (PE-labeled human PD-L1-Ig binding to Jurkat cell line over-expressing human PD-1) (Homo sapiens, UniProt Q15116) (assay: Jurkat-PD-1 Cell Binding High-Content Screening Assay (CBA)). Details: Jurkat cell line over-expressing human PD-1; PE-labeled PD-L1-Ig 20 nM final; read-out: Jurkat hPD1-PDL1 IC50.
T1 construct: expressed in transfected cells; host or cells: Jurkat
Format: cell-based
In short: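 Jurkat-hPD-1 cells, DMEM/10% FCS; cpd 2 h 37° C; PE-PD-L1-Ig 20 nM final, 1 h; 4% PFA fix + Hoechst 33342, 3× dPBS wash; high-content imaging read-out.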

T1 sequence (Q15116 25-288): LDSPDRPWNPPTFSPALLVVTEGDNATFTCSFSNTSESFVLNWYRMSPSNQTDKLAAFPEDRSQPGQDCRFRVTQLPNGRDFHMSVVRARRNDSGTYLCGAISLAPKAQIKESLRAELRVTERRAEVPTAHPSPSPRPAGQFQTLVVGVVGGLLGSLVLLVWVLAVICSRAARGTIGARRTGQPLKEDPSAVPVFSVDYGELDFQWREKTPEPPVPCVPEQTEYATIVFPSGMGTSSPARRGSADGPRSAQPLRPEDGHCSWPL

SMILES | IC50
Cc1cccc(C[C@@H]2NC(=O)[C@H](CC(=O)O)NC(=O)[C@H](Cc3ccc(OCC(=O)O)cc3)NC(=O)C(CC3CCC(F)(F)CC3)NC(=O)CSC[C@@H](C(=O)N[C@@H](CCN)C(=O)NCCCCCCCCCCCCC(=O)O)NC(=O)[C@H](CO)NC(=O)[C@H](C(C)(C)O)NC(=O)[C@H](CC3CCCCC3)NC(=O)[C@H](CCN)NC(=O)[C@@H](CC(C)C)NC(=O)[C@H](CCCN)NC(=O)[C@H](Cc3ccc(OCC(=O)O)cc3)NC(=O)[C@H](Cc3ccc(-c4ccccc4)cc3)NC(=O)[C@H](Cc3ccc(OCC(=O)O)cc3)NC2=O)c1 (stereo partly drawn) [Compound 2258] ({CH2CO}-[X18]Y(Carboxymethyl)D[Phe(3-Me)]Y(Carboxymethyl)[Bip]Y(Carboxymethyl)[Orn][dL][Dab][Cha][Val(3-OH)]SC[Dab]-{NH(CH2)12COOH}; thioether N-14) | 48.9 nM
Cc1cccc(C[C@@H]2NC(=O)[C@H](CC(=O)O)NC(=O)[C@H](Cc3ccc(OCC(=O)O)cc3)NC(=O)[C@H](C(C)O)NC(=O)CSC[C@@H](C(=O)N[C@@H](CCN)C(=O)NCCCCCCCCCCC(=O)O)NC(=O)[C@H](C(C)O)NC(=O)[C@H](C(C)C)NC(=O)[C@H](CC3CCCCC3)NC(=O)[C@H](CCN)NC(=O)[C@@H](CC(C)C)NC(=O)[C@H](CCCN)NC(=O)[C@H](Cc3ccc(OCC(=O)O)cc3)NC(=O)[C@H](Cc3ccc(-c4ccccc4)cc3)NC(=O)[C@H](Cc3ccc(C(=O)O)cc3)NC2=O)c1 (stereo partly drawn) [Compound 3484] ({CH2CO}-[Thr(3ξ)]Y(Carboxymethyl)D[Phe(3-Me)][Phe(4-COOH)][Bip]Y(Carboxymethyl)[Orn][dL][Dab][Cha]V[Thr(3ξ)]C[Dab][Aun]-OH; thioether N-14) | 6.7 nM
Cc1cccc(C[C@@H]2NC(=O)[C@H](CC(=O)O)NC(=O)[C@H](Cc3ccc(CCC(=O)O)cc3)NC(=O)[C@H](CCCNC(=N)N)NC(=O)CSC[C@@H](C(=O)N[C@@H](CCN)C(=O)N[C@@H](CO)C(=O)NCCCCCCCCCCC(=O)O)NC(=O)[C@H](CCC(=O)O)NC(=O)[C@H](C(C)C)NC(=O)[C@H](CC3CCCCC3)NC(=O)[C@H](CCN)NC(=O)[C@@H](CC(C)C)NC(=O)[C@H](CCN)NC(=O)[C@H](CCCNC(N)=O)NC(=O)[C@H](Cc3ccc(-c4ccccc4)cc3)NC(=O)[C@H](C(C)C)NC2=O)c1 [Compound 2813] ({CH2CO}-R[Phe(4-CH2CH2COOH)]D[Phe(3-Me)]V[Bip][Cit][Dab][dL][Dab][Cha]VEC[Dab]S[Aun]-OH; thioether N-14) | 181 nM
Cc1cccc(C[C@@H]2NC(=O)[C@H](CC(=O)O)NC(=O)[C@H](Cc3ccc(OCC(=O)O)cc3)NC(=O)[C@H](CCCNC(=N)N)NC(=O)CSC[C@@H](C(=O)NC3(C(=O)NCCCCCCCCCCC(=O)O)CC3)NC(=O)[C@H]([C@@H](C)O)NC(=O)[C@H](C(C)C)NC(=O)[C@H](CC3CCC3)NC(=O)[C@H](CCN)NC(=O)[C@@H](CC(C)C)NC(=O)[C@H](CCCN)NC(=O)[C@H](Cc3ccc(OCC(=O)O)cc3)NC(=O)[C@H](Cc3ccc(-c4ccccc4)cc3)NC(=O)[C@H](Cc3ccc(OCC(=O)O)cc3)NC2=O)c1 [Compound 2164] ({CH2CO}-RY(Carboxymethyl)D[Phe(3-Me)]Y(Carboxymethyl)[Bip]Y(Carboxymethyl)[Orn][dL][Dab][Cba]VTC[Ac3c][Aun]-OH; thioether N-14) | 33.3 nM

Continued by falling IC50, values first:

IC50 | SMILES
314 nM | Cc1cccc(C[C@@H]2NC(=O)[C@H](CC(=O)O)NC(=O)[C@H](Cc3ccc(OCC(=O)O)cc3)NC(=O)[C@H](Cc3ccncc3)NC(=O)CSC[C@@H](C(=O)N[C@@H](CCN)C(=O)NCCOCCOCC(=O)NCCOCCOCC(=O)NCCCCCCCCCCC(=O)O)NC(=O)[C@H](CCCN)NC(=O)[C@H](C(C)(C)O)NC(=O)[C@H](CC3CCCCC3)NC(=O)[C@H](CCN)NC(=O)[C@@H](CC(C)C)NC(=O)[C@H](CCCN)NC(=O)[C@H](Cc3ccc(OCC(=O)O)cc3)NC(=O)[C@H](Cc3ccc(-c4ccccc4)cc3)NC(=O)[C@H](Cc3ccc(OCC(=O)O)cc3)NC2=O)c1 [Compound 3755] ({CH2CO}-[4Pal]Y(Carboxymethyl)D[Phe(3-Me)]Y(Carboxymethyl)[Bip]Y(Carboxymethyl)[Orn][dL][Dab][Cha][Val(3-OH)][Orn]C[Dab][AEEA][AEEA][Aun]-OH; thioether N-14)
63.6 nM | CCCC[C@@H]1NC(=O)CSC[C@@H](C(=O)N[C@H](CCN)C(=O)NCCOCCOCC(=O)N[C@@H](CCC(=O)NCCOCCOCC(=O)NCCCCCCCCCCCCC(=O)O)C(=O)O)NC(=O)[C@H](CCC(=O)O)NC(=O)[C@H](C(C)C)NC(=O)[C@H](CC2CCCCC2)NC(=O)[C@H](CCN)NC(=O)[C@@H](CC(C)C)NC(=O)[C@H](CCCN)NC(=O)[C@H](Cc2ccc(OCC(=O)O)cc2)NC(=O)[C@H](Cc2ccc(-c3ccccc3)cc2)NC(=O)[C@H](Cc2ccc(C(=O)O)cc2)NC(=O)[C@H](Cc2cccc(C(F)(F)F)c2)NC(=O)[C@H](CC(=O)O)NC(=O)[C@H](Cc2ccc(OCC(=O)O)cc2)NC1=O [Compound 3897] ({CH2CO}-[Nle]Y(Carboxymethyl)D[Phe(3-CF3)][Phe(4-COOH)][Bip]Y(Carboxymethyl)[Orn][dL][Dab][Cha]VEC[dDab][AEEA][γGlu][AEEA]-{NH(CH2)12COOH}; thioether N-14)
22 nM | Cc1cccc(C[C@@H]2NC(=O)[C@H](CC(=O)O)NC(=O)[C@H](Cc3ccc(O)cc3)NC(=O)[C@H](CC(N)=O)NC(=O)CSC[C@@H](C(=O)N[C@@H](CCN)C(=O)NCCCCCCCCCCC(=O)O)NC(=O)[C@H](CCC(=O)O)NC(=O)[C@H](C(C)C)NC(=O)[C@H](CC(C)C)NC(=O)[C@H](CCN)NC(=O)[C@@H](CC(C)C)NC(=O)[C@H](CCCN)NC(=O)[C@H](CCCNC(N)=O)NC(=O)[C@H](Cc3ccc(-c4ccccc4)cc3)NC(=O)[C@H](C(C)C)NC2=O)c1 [Compound 2773] ({CH2CO}-NYD[Phe(3-Me)]V[Bip][Cit][Orn][dL][Dab]LVEC[Dab][Aun]-OH; thioether N-14)
14.8 nM | CC(C)C[C@H]1NC(=O)[C@H](CCCN)NC(=O)[C@H](C(C)C)NC(=O)[C@H](Cc2ccc(-c3ccccc3)cc2)NC(=O)[C@H](C(C)C)NC(=O)[C@H](Cc2c[nH]c3ccccc23)NC(=O)[C@H](CC(=O)O)NC(=O)[C@H](Cc2ccc(OCC(=O)O)cc2)NC(=O)[C@H](CCCCNC(=N)N)NC(=O)CSC[C@@H](C(=O)N[C@@H](CCCN)C(=O)NCCOCCOCC(=O)N[C@@H](CCCN)C(=O)NCCCCCCCCCCC(=O)O)NC(=O)[C@H](CO)NC(=O)[C@H](C(C)C)NC(=O)[C@H](CC2CCCCC2)NC(=O)[C@H](CC(N)=O)NC1=O [Compound 3178] ({CH2CO}-[hArg]Y(Carboxymethyl)DWV[Bip]V[Orn][dL]N[Cha]VSC[Orn][AEEA][Orn][Aun]-OH; thioether N-14)
8.9 nM | CC(C)C[C@H]1NC(=O)[C@H](CCCN)NC(=O)[C@H](C(C)C)NC(=O)[C@H](Cc2ccc(-c3ccccc3)cc2)NC(=O)[C@H](C(C)C)NC(=O)[C@H](Cc2c[nH]c3ccccc23)NC(=O)[C@H](CC(=O)O)NC(=O)[C@H](Cc2ccc(OCC(=O)O)cc2)NC(=O)[C@H](CCCNC(=N)N)NC(=O)CSC[C@@H](C(=O)NCC(=O)NCCOCCOCC(=O)N[C@@H](CCCN)C(=O)NCCCCCCCCCCC(=O)O)NC(=O)[C@H](CO)NC(=O)[C@H](C(C)C)NC(=O)[C@H](CC2CCCCC2)NC(=O)[C@H](CCN)NC1=O [Compound 3230] ({CH2CO}-RY(Carboxymethyl)DWV[Bip]V[Orn][dL][Dab][Cha]VSCG[AEEA][Orn][Aun]-OH; thioether N-14)
